Source: US20230203043A1, “NOVEL IMIDAZOPYRAZINE DERIVATIVES” (Hoffmann-La Roche Inc., priority 2020, published 2023)
Where a name gives a salt, the structure may show the parent alone.

Test system: Acinetobacter baumannii ATCC17961
Test: Antimicrobial susceptibility testing: 90% growth inhibitory concentration (IC90) determination in Iso-Sensitest broth, OD600 growth
Assay type: cell-based
Settings: Acinetobacter baumannii, ATCC17961, 16 h, read-out: A. baumannii ATCC 17961 IC90 (uM), strain ATCC 17961, OD600 growth over 16 h
Outline: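 Growth inhibition is calculated during the logarithmic phase from OD600 readings taken every 20 minutes across 16 h at 35±2° C. Bacteria at ~5×10^(5) CFU/ml face twofold dilution series (e.g. 50 to 0.097 μM final).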

Structure (SMILES) | IC90 [µM]
CCc1cc(Nc2nccn3c(-c4cn(CC(F)F)nc4C(F)(F)F)cnc23)ccc1C(=O)NCCNC(=O)C1CCNCC1 [Example 554, N-(2-(4-((3-(1-(2,2-difluoroethyl)-3-(trifluoromethyl)-1H-pyrazol-4-yl)imidazo[1,2-a]pyrazin-8-yl)amino)-2-ethylbenzamido)ethyl) piperidine-4-carboxamide formate] | 0.198
CCc1cc(Nc2nccn3c(-c4cn(CC(F)F)nc4C(F)(F)F)cnc23)ccc1C(=O)N1CCC2(CNC2)C1 [Example 555, (4-((3-(1-(2,2-difluoroethyl)-3-(trifluoromethyl)-1H-pyrazol-4-yl)imidazo[1,2-a]pyrazin-8-yl)amino)-2-ethylphenyl)(2,6-diazaspiro[3.4]octan-6-yl)methanone formate] | 0.977
CCc1cc(Nc2nccn3c(-c4cn(CC(F)F)nc4C(F)(F)F)cnc23)ccc1C(=O)N1CC(N)C1 [Example 556, (3-aminoazetidin-1-yl)(4-((3-(1-(2,2-difluoroethyl)-3-(trifluoromethyl)-1H-pyrazol-4-yl)imidazo[1,2-a]pyrazin-8-yl)amino)-2-ethylphenyl)methanone formate] | 0.675
CCc1cc(Nc2nccn3c(-c4cn(CC(F)F)nc4C(F)(F)F)cnc23)ccc1C(=O)NCC1CNC1 [Example 557, N-(azetidin-3-ylmethyl)-4-((3-(1-(2,2-difluoroethyl)-3-(trifluoromethyl)-1H-pyrazol-4-yl)imidazo[1,2-a]pyrazin-8-yl)amino)-2-ethylbenzamide formate] | 0.144
CCc1cc(Nc2nccn3c(-c4cn(CC(F)F)nc4C(F)(F)F)cnc23)ccc1C(=O)NCC(CN)CCl (stereo not drawn) [Example 558, N-(3-amino-2-(chloromethyl)propyl)-4-((3-(1-(2,2-difluoroethyl)-3-(trifluoromethyl)-1H-pyrazol-4-yl)imidazo[1,2-a]pyrazin-8-yl)amino)-2-ethylbenzamide formate] | 0.174
CCc1cc(Nc2nccn3c(-c4cn(CC(F)F)nc4C(F)(F)F)cnc23)ccc1C(=O)N1CCC12CNC2 [Example 559, (4-((3-(1-(2,2-difluoroethyl)-3-(trifluoromethyl)-1H-pyrazol-4-yl)imidazo[1,2-a]pyrazin-8-yl)amino)-2-ethylphenyl)(1,6-diazaspiro[3.3]heptan-1-yl)methanone formate] | 0.398
CCc1cc(Nc2nccn3c(-c4cn(CC(F)F)nc4C(F)(F)F)cnc23)ccc1C(=O)N1CC2CC1CN2 (stereo not drawn) [Example 561, (2,5-diazabicyclo [2.2.1]heptan-2-yl)(4-((3-(1(2,2-difluoroethyl)-3-(trifluoromethyl)-1H-pyrazol-4-yl)imidazo[1,2-a]pyrazin-8-yl)amino)-2-ethylphenyl) methanone formate] | 0.909
CCc1cc(Nc2nccn3c(-c4cn(CC(F)F)nc4C(F)(F)F)cnc23)ccc1C(=O)NC1C2CNCC21 (stereo not drawn) [Example 562, N-(3-azabicyclo[3.1.0]hexan-6-yl)-4-((3-(1-(2,2-difluoroethyl)-3-(trifluoromethyl)-1H-pyrazol-4-yl)imidazo[1,2-a]pyrazin-8-yl)amino)-2-ethylbenzamide formate] | 0.305
CCc1cc(Nc2nccn3c(-c4cn(CC(F)F)nc4C(F)(F)F)cnc23)ccc1C(=O)NC1CCCNC1 (stereo not drawn) [Example 563, 4-((3-(1-(2,2-difluoroethyl)-3-(trifluoromethyl)-1H-pyrazol-4-yl)imidazo[1,2-a]pyrazin-8-yl)amino)-2-ethyl-N-(piperidin-3-yl)benzamide formate] | 0.575
CCc1cc(Nc2nccn3c(-c4cn(CC(F)F)nc4C(F)(F)F)cnc23)ccc1C(=O)N1CC2(CCN2)C1 [Example 564, (4-((3-(1-(2,2-difluoroethyl)-3-(trifluoromethyl)-1H-pyrazol-4-yl)imidazo[1,2-a]pyrazin-8-yl)amino)-2-ethylphenyl)(1,6-diazaspiro[3.3]heptan-6-yl)methanone formate] | 0.58
CCc1cc(Nc2nccn3c(-c4cn(CC(F)F)nc4C(F)(F)F)cnc23)ccc1C(=O)NC1CNC1 [Example 565, N-(azetidin-3-yl)-4-((3-(1-(2,2-difluoroethyl)-3-(trifluoromethyl)-1H-pyrazol-4-yl)imidazo[1,2-a]pyrazin-8-yl)amino)-2-ethylbenzamide formate] | 0.188
CCc1cc(Nc2nccn3c(-c4cn(CC#N)nc4C(F)(F)F)cnc23)ccc1C(=O)NCCNC(=O)CCN [Example 566, N-(2-(3-aminopropanamido)ethyl)-4-((3-(1-(cyanomethyl)-3-(trifluoromethyl)-1H-pyrazol-4-yl)imidazo[1,2-a]pyrazin-8-yl)amino)-2-ethylbenzamide formate] | 0.477
CCc1cc(Nc2nccn3c(-c4c[nH]nc4C(F)(F)F)cnc23)ccc1C(=O)NCCNC(=O)NCCCN [Example 569, N-(2-(3-(3-aminopropyl)ureido)ethyl)-2-ethyl-4-((3-(3-(trifluoromethyl)-1H-pyrazol-4-yl)imidazo[1,2-a]pyrazin-8-yl)amino)benzamide formate] | 0.364
O=C(CC1CCNCC1)N1CCN(C(=O)c2ccc(Nc3nccn4c(-c5c[nH]nc5C(F)(F)F)cnc34)cc2Cl)CC1 [Example 570, 1-(4-(2-chloro-4-((3-(3-(trifluoromethyl)-1H-pyrazol-4-yl)imidazo[1,2-a]pyrazin-8-yl)amino)benzoyl)piperazin-1-yl)-2-(piperidin-4-yl) ethan-1-one formate] | 0.256
NCCN1CCN(C(=O)c2ccc(Nc3nccn4c(-c5c[nH]nc5C(F)(F)F)cnc34)cc2Cl)CC1 [Example 571, (4-(2-aminoethyl)piperazin-1-yl)(2-chloro-4-((3-(3-(trifluoromethyl)-1H-pyrazol-4-yl)imidazo[1,2-a]pyrazin-8-yl)amino)phenyl) methanone formate] | 0.192
N#CCn1cc(-c2cnc3c(Nc4ccc(C(=O)N5CCN(C(=O)CC6CCNCC6)CC5)c(Cl)c4)nccn23)c(C(F)(F)F)n1 [Example 572, 2-(4-(8-((3-chloro-4-(4-(2-(piperidin-4-yl)acetyl)piperazine-1-carbonyl)phenyl)amino)imidazo[1,2-a]pyrazin-3-yl)-3-(trifluoromethyl)-1H-pyrazol-1-yl)acetonitrile formate] | 0.291
N#CCn1cc(-c2cnc3c(Nc4ccc(C(=O)N5CCN(C(=O)[C@@H]6CC[C@@H](N)C6)CC5)c(Cl)c4)nccn23)c(C(F)(F)F)n1 [Example 573, 2-(4-(8-((4-(4-((1R,3R)-3-aminocyclopentane-1-carbonyl)piperazine-1-carbonyl)-3-chlorophenyl)amino)imidazo[1,2-a]pyrazin-3-yl)-3-(trifluoromethyl)-1H-pyrazol-1-yl)acetonitrile formate] | 0.169
N[C@@H]1CC[C@@H](C(=O)N2CCN(C(=O)c3ccc(Nc4nccn5c(-c6cn(CC(F)F)nc6C(F)(F)F)cnc45)cc3Cl)CC2)C1 [Example 574, (4-((1R,3R)-3-aminocyclopentane-1-carbonyl)piperazin-1-yl)(2-chloro-4-((3-(1-(2,2-difluoroethyl)-3-(trifluoromethyl)-1H-pyrazol-4-yl)imidazo[1,2-a]pyrazin-8-yl)amino)phenyl)methanone formate] | 0.242
N[C@H]1CC[C@H](C(=O)N2CCN(C(=O)c3ccc(Nc4nccn5c(-c6c[nH]nc6C(F)(F)F)cnc45)cc3Cl)CC2)C1 [Example 575, (4-((1S,3S)-3-aminocyclopentane-1-carbonyl)piperazin-1-yl)(2-chloro-4-((3-(3-(trifluoromethyl)-1H-pyrazol-4-yl)imidazo[1,2-a]pyrazin-8-yl)amino)phenyl)methanone formate] | 0.175

Same assay, conditions: Acinetobacter baumannii, ATCC17961, 16 h, strain ATCC 17961, OD600 growth over 16 h, read-out: A. baumannii ATCC 17961 IC90

IC90 [µM] | Structure (SMILES)
0.836 | CCc1cc(Nc2nccn3c(-c4cn(CC(F)F)nc4C(F)(F)F)cnc23)ccc1C(=O)N1CCC1(CN)CCl (stereo not drawn) [Example 560, (2-(aminomethyl)-2-(chloromethyl)azetidin-1-yl)(4-((3-(1-(2,2-difluoroethyl)-3-(trifluoromethyl)-1H-pyrazol-4-yl)imidazo[1,2-a]pyrazin-8-yl)amino)-2-ethylphenyl) methanone formate]
0.476 | CCc1cc(Nc2nccn3c(-c4c[nH]nc4C(F)(F)F)cnc23)ccc1C(=O)NCCNC(=O)[C@H]1C[C@H](N)C1 [Example 567, N-(2-((1r,3r)-3-aminocyclobutane-1-carboxamido)ethyl)-2-ethyl-4-((3-(3-(trifluoromethyl)-1H-pyrazol-4-yl)imidazo[1,2-a]pyrazin-8-yl)amino) benzamide formate]
0.46 | CCc1cc(Nc2nccn3c(-c4c[nH]nc4C(F)(F)F)cnc23)ccc1C(=O)NCCNC(=O)N1CCC(N)CC1 [Example 568, 4-amino-N-(2-(2-ethyl-4-((3-(3-(trifluoromethyl)-1H-pyrazol-4-yl)imidazo[1,2-a]pyrazin-8-yl)amino)benzamido)ethyl) piperidine-1-carboxamide formate]
0.9 | CCc1cc(Nc2nccn3c(-c4c[nH]nc4C(F)(F)F)cnc23)ccc1C(=O)NCCNC(=O)N1CC[C@H](N)C1 [Example 576, (S)-3-amino-N-(2-(2-ethyl-4-((3-(3-(trifluoromethyl)-1H-pyrazol-4-yl)imidazo[1,2-a]pyrazin-8-yl)amino)benzamido)ethyl) pyrrolidine-1-carboxamide formate]
0.395 | CCc1cc(Nc2nccn3c(-c4cn(CC#N)nc4C(F)(F)F)cnc23)ccc1C(=O)NCCNC(=O)N1CC[C@H](N)C1 [Example 577, (S)-3-amino-N-(2-(4-((3-(1-(cyanomethyl)-3-(trifluoromethyl)-1H-pyrazol-4-yl)imidazo[1,2-a]pyrazin-8-yl)amino)-2-ethylbenzamido)ethyl) pyrrolidine-1-carboxamide formate]
